# Data reported in PubChem BioAssay (NCI).
# Several values for one entry are separate records, joined by “and”; a condition that tells them apart may be missing. Identical values can stand only once.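 In this assay, cells in 96-well plates receive the compound at five concentrations for 48 hours. Endpoints are linearly interpolated between the surrounding concentrations. Abbreviation: GI50, concentration required for 50% inhibition of growth. At the TGI there is no net growth.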
# What was measured:
# Test in all cases: inhibition of tumour cell growth, NCI panel, 48 h
# [1] = tested on: OVCAR-5 ovarian
# [2] = tested on: DU-145 prostate
# [3] = tested on: TK-10 renal
# [4] = tested on: SNB-75 CNS
# [5] = tested on: SNB-19 CNS
# [6] = tested on: HOP-62 NSCLC
# [7] = tested on: COLO 205 colon
# [8] = tested on: UACC-257 melanoma
# [9] = tested on: BT-549 breast
# [10] = tested on: HCT-116 colon
# [11] = tested on: MDA-MB-231 breast
# [12] = tested on: A549 NSCLC
# [13] = tested on: EKVX NSCLC
# [14] = tested on: M14 melanoma
# [15] = tested on: HCT-15 colon
# [16] = tested on: K-562 leukemia
# [17] = tested on: KM12 colon
# [18] = tested on: HS 578T breast
# [19] = tested on: A498 renal
# [20] = tested on: SK-MEL-28 melanoma
# [21] = tested on: RPMI-8226 leukemia
# [22] = tested on: IGROV1 ovarian
# [23] = tested on: SW-620 colon
# [24] = tested on: MDA-MB-435
# [25] = tested on: MCF7 breast
# [26] = tested on: 786-0 renal
# [27] = tested on: U251 CNS
# [28] = tested on: SR leukemia
# [29] = tested on: MOLT-4 leukemia
# [30] = tested on: HT29 colon
# [31] = tested on: CAKI-1 renal
# [32] = tested on: SK-MEL-2 melanoma
# [33] = tested on: MALME-3M melanoma
# [34] = tested on: LOX IMVI melanoma
# [35] = tested on: PC-3 prostate
# [36] = tested on: HCC-2998 colon
# [37] = tested on: SF-268 CNS
# [38] = tested on: NCI-H23 lung
# [39] = tested on: NCI-H522 lung
# [40] = tested on: UACC-62 melanoma
# [41] = tested on: OVCAR-8 ovarian
# [42] = tested on: HL-60(TB) leukemia
# [43] = tested on: SN12C renal
# [44] = tested on: NCI-H460 lung
# [45] = tested on: UO-31 renal
# [46] = tested on: NCI-H226 lung
# [47] = tested on: OVCAR-3 ovarian
# [48] = tested on: RXF 393 renal
# [49] = tested on: SK-MEL-5 melanoma
# [50] = tested on: HOP-92 NSCLC
# [51] = tested on: SF-539 CNS
# [52] = tested on: OVCAR-4 ovarian
# [53] = tested on: ACHN renal
# [54] = tested on: SK-OV-3 ovarian
# [55] = tested on: SF-295 CNS
# [56] = tested on: T-47D breast
# [57] = tested on: NCI/ADR-RES ovarian
structure (smiles),measurement,setting,value
C/C(=C\c1ccc(Cl)c(Cl)c1)[N+](=O)[O-],GI50,[1],2.25 µM
same,TGI,[1],5.09 µM and 4.62 µM
same,TGI,[2],2.92 µM and 3.12 µM
same,GI50,[3],1.67 µM
same,TGI,[3],3.19 µM and 3.6 µM
same,GI50,[4],1.46 µM
same,TGI,[5],9.45 µM
same,TGI,[6],3.15 µM
same,GI50,[7],1.78 µM
same,TGI,[7],3.27 µM
same,TGI,[8],2.56 µM and 2.84 µM
same,GI50,[9],7.55 µM
same,TGI,[9],20.1 µM
same,GI50,[10],1.37 µM
same,TGI,[10],2.85 µM and 10.2 µM
same,TGI,[11],3.94 µM
same,TGI,[12],3.41 µM and 4.52 µM
same,TGI,[13],3.9 µM and 4.58 µM
same,GI50,[14],1.57 µM
same,TGI,[14],3.13 µM and 3.16 µM
same,TGI,[15],4.13 µM and 3.18 µM
same,GI50,[16],0.731 µM
same,GI50,[17],1.71 µM
same,TGI,[17],3.29 µM and 4.16 µM
same,TGI,[18],9.44 µM
same,GI50,[19],8.21 µM
same,TGI,[19],21.5 µM and 14.8 µM
same,GI50,[20],1.75 µM
same,TGI,[20],3.14 µM and 4.81 µM
same,GI50,[21],0.538 µM
same,TGI,[21],3.17 µM
same,TGI,[22],3.85 µM
same,GI50,[23],1.33 µM
same,GI50,[24],1.84 µM
same,TGI,[24],3.71 µM and 4.55 µM
same,TGI,[25],17.3 µM
same,TGI,[26],3.18 µM
same,TGI,[27],2.71 µM
same,GI50,[28],2.38 µM
same,TGI,[28],11.4 µM and 6.68 µM
same,GI50,[29],2.58 µM
same,TGI,[29],> 100 µM
same,TGI,[30],5.9 µM
same,GI50,[31],1.1 µM
same,TGI,[31],2.51 µM
same,TGI,[32],4.05 µM and 4.03 µM
same,GI50,[33],1.61 µM
same,TGI,[33],3.36 µM and 3.83 µM
same,GI50,[34],1.19 µM
same,TGI,[34],2.62 µM and 0.955 µM
same,GI50,[35],1.85 µM
same,TGI,[35],3.81 µM
same,TGI,[36],8.25 µM
same,GI50,[37],1.66 µM
same,TGI,[37],3.31 µM and 3.33 µM
same,TGI,[38],5.36 µM
same,TGI,[39],3.14 µM
same,GI50,[40],1.74 µM
same,TGI,[40],3.51 µM and 4.8 µM
same,GI50,[41],1.62 µM
same,TGI,[41],3.4 µM
same,GI50,[42],1.94 µM
same,TGI,[42],6.02 µM and 5.95 µM
same,TGI,[43],4.08 µM
same,GI50,[44],3.15 µM
same,TGI,[44],14 µM and > 100 µM
same,TGI,[45],2.61 µM and 2.66 µM
same,GI50,[46],17.5 µM
same,TGI,[46],42.6 µM and 5.26 µM
same,TGI,[47],3.08 µM and 3.47 µM
same,GI50,[48],1.51 µM
same,TGI,[48],2.9 µM
same,GI50,[49],3.05 µM
same,TGI,[49],11.3 µM and 3.94 µM
same,GI50,[50],1.43 µM
same,TGI,[50],2.99 µM
same,TGI,[51],5.77 µM
same,TGI,[52],3.09 µM
same,GI50,[53],1.77 µM
same,TGI,[53],3.6 µM and 3.82 µM
same,GI50,[54],16.3 µM
same,TGI,[54],29.8 µM
same,GI50,[55],2.19 µM
same,TGI,[55],5.72 µM and 8.01 µM
c1ccc(Cn2c(-c3ccc(OC[C@H](C4CCNCC4)n4c(-c5ccccc5)nc5ccccc54)cc3)nc3ccccc32)cc1,GI50,[3],1.63 µM
same,TGI,[3],3.08 µM
same,GI50,[18],2 µM
same,TGI,[18],4.79 µM
same,GI50,[19],1.48 µM
same,TGI,[19],2.83 µM
same,GI50,[56],2.19 µM
same,TGI,[56],4.72 µM
same,GI50,[57],7.74 µM
same,TGI,[57],> 80.7 µM
